# Laboratory results taken from patent US11185522B2, “Cilastatin for use in the treatment of sepsis” (FUNDACIÓN PARA LA INVESTIGACIÓN BIOMÉDICA DEL HOSPITAL …, priority 2016, dated 2021).
# Several values for one entry are separate records, joined by “and”; a condition that tells them apart may be missing. Identical values can stand only once.
# Columns and labels:
# [1] = septic rats
# Protocol: (§1) Sepsis was developed by cecal ligation puncture model (CLP) as described in several papers (Li G et al, Clin Exp Pharmacol Physiol. 2014; 41(7):459-68, Seija M et al, Shock. 2012; 38(4):403-10). Animals were anesthetized with ketamine (Ketolar 50 mg/ml) 90 mg/kg intraperitoneal (ip) and diazepam (Valium 10 mg/2 mL) 5 mg/kg ip. Under sterile conditions a 3-cm midline laparotomy was performed to allow exposure of the cecum, and a 4-0 silk ligature was placed 0.75 cm from the cecal tip. It was punctured once with a 14-gauge needle. A second ligature was placed 1.5 cm proximal to the first one and distal to the ileocecal valve to avoid intestinal obstruction. Three punctures were made in the cecum between the two ligatures with a 16-gauge needle. The cecum was gently squeezed until a 1-mm column of fecal material was exteriorized. The bowel was then returned to the abdomen and the incision was closed in layers. A sham operation (laparotomy and cecal exposure without any other manipulation) was performed as control. At the end of the operation, all rats were resuscitated with normal saline (50 ml/kg body weight) subcutaneously in a single dose and analgesic treatment with buprenorphine (buprex 0.3 mg/ml) 0.1 mg/kg every 12 hours immediately after surgery and until the day of killing.
# (§2) In the treatment groups, the rats were treated with cilastatin 150 mg/kg ip immediately and at 24 h after induction of sepsis or the sham-operation. Cilastatin was substituted by vehicle (0.5 mL/100 g) in the non-treatment groups. […] All animals were then placed in the metabolic cages for 24-h urine collection.
# (§3) Forty-eight (48) hours after the sepsis-induction/sham-operation, all rats were anesthetized with ketamine (10 mg/kg) and diazepam (4 mg/kg) and killed. Blood samples were collected by insertion of a cannula into the abdominal aorta, and serum was isolated by centrifugation in ACUETTE® Z Serum Sep Clot Activator tubes (Greiner bio-one), at 2000 rpm for 15 h at 4° C., and then stored at −80° C. until use. The kidneys were perfused with cold saline and quickly removed. […]
# [2] = test system: CLP-induced sepsis rats; conditions: day 2 after CLP surgery
# Protocol: as §1, §2, §3
# [3] = test system: kidney tubular cell apoptosis; conditions: kidneys of septic rats
# Protocol: as §1, §2, §3
# [4] = test system: cleaved caspase-8; conditions: septic rats; Western blot
# Protocol: as §1, with “At the end of the operation, all rats were resuscitated with normal saline (50 ml/kg body weight) subcutaneously in a single dose and analgesic treatment with buprenorphine (buprex 0.3 mg/ml) 0.1 mg/kg every 12 hours immediately after surgery and until the day of killing.” left out
# (§4) Western blotting was performed as described previously (Humanes B et al, Kidney International. 2012; 82(6):652-663). […] All signals were visualized with an Alliance 4.7 (Uvitec, Cambridge, UK) and analyzed by densitometric scanning (ImageJ; http://rsbweb.nih.gov/ij/index.html). […]
# [5] = test system: FasL; conditions: septic rats; Western blot
# Protocol: as §1, with “At the end of the operation, all rats were resuscitated with normal saline (50 ml/kg body weight) subcutaneously in a single dose and analgesic treatment with buprenorphine (buprex 0.3 mg/ml) 0.1 mg/kg every 12 hours immediately after surgery and until the day of killing.” left out
# as §4
# [6] = test system: CLP-induced sepsis rats
# Protocol: as §1
# [7] = test system: ICAM-1; conditions: septic rats; immunohistochemistry
# Protocol: as §1
# (§5) Immunohistochemistry was carried out as described previously (Humanes B et al, Kidney International. 2012; 82(6):652-663). The primary antibodies used were polyclonal goat anti-rat TIM-1/KIM-1/HAVCR (1:20; R&D systems); anti-cleaved caspase-3 (Asp175) (1:50; Cell Signaling Technology, Inc., Beverly, Mass.) mouse monoclonal anti-4-HNE (1:75; Oxis International Inc., Foster City, Calif.); polyclonal rabbit anti-Cu/Zn SOD (1:1000; Assay Designs, Stressgen, Ann Arbor, Mich., USA); monoclonal mouse anti-CD68 (monocyte/macrophage, 1:125, Abd Serotec, Oxford, UK); polyclonal goat anti-VCAM-1 (1:100; Santa Cruz Biotechology, Inc., Beverly, Mass., USA); polyclonal rabbit anti-TGFβ1 antibody (1:100; Santa Cruz Biotechnology); monoclonal mouse anti-ICAM-1 (1:100; Santa Cruz). […] The surface area labeled by antibodies was evaluated by quantitative image analysis as previously described (Lazaro A. et al. Antiox Redox Signal. 2005; 7:1285-1293). In brief, the percentage of the stained area was calculated as the ratio of suitable binary thresholded image and the total field area. For each sample, the mean staining area was obtained by analysis of the entire sample.
# as §2
# (§6) Forty-eight (48) hours after the sepsis-induction/sham-operation, all rats were anesthetized with ketamine (10 mg/kg) and diazepam (4 mg/kg) and killed. Blood samples were collected by insertion of a cannula into the abdominal aorta, and serum was isolated by centrifugation in ACUETTE® Z Serum Sep Clot Activator tubes (Greiner bio-one), at 2000 rpm for 15 h at 4° C., and then stored at −80° C. until use. The kidneys were perfused with cold saline and quickly removed. Kidney samples were snap-frozen in liquid nitrogen and kept at −80° C. or fixed in 4% paraformaldehyde (24 h) and paraffin-embedded for the different studies.
# [8] = test system: 4-HNE; conditions: septic rats
# Protocol: as §1, §5, §2, §6
# [9] = test system: TGFβ; conditions: septic animals; immunohistochemistry
# Protocol: as §1, §5, §2, §6
# [10] = test system: VCAM-1; conditions: septic rats; immunohistochemistry
# Protocol: as §1, §5, §2, §6
# [11] = test system: CD68; conditions: cilastatin-treated septic rats compared to the sepsis group
# Protocol: as §1, §5, §2, §6
# [12] = test system: CLP-induced sepsis rats; remark: listed apart in the source
# Protocol: as §1
# Serum creatinine, blood urea nitrogen levels (BUN), proteins and other parameters were measured using the Dimension RxL autoanalyzer (Dade-Behring, Siemens, Eschborn, Germany). The glomerular filtration rate was calculated using the creatinine clearance rate.
# The animals were randomly allocated into four groups (n=10 in each group): • i. sham-operated group, • ii. CLP group, • iii. sham-operated group+cilastatin, and • iv. CLP group+cilastatin.
# as §2, §6
# [13] = test system: cleaved caspase-3; conditions: septic rats; immunohistochemistry and Western blot of the renal cortex
# Protocol: as §1
# (§7) Immunohistochemistry was carried out as described previously (Humanes B et al, Kidney International. 2012; 82(6):652-663). […] The surface area labeled by antibodies was evaluated by quantitative image analysis as previously described (Lazaro A. et al. Antiox Redox Signal. 2005; 7:1285-1293). In brief, the percentage of the stained area was calculated as the ratio of suitable binary thresholded image and the total field area. […]
# as §4
# [14] = test system: KIM-1; conditions: sepsis+cil vs control (SHAM) levels; immunohistochemistry and Western blot; 48 h
# Protocol: as §1, §7, §4
# [15] = test system: Cu/Zn SOD; conditions: septic rats; immunohistochemistry and Western blotting
# Protocol: as §1, §7, §4
# [16] = sepsis+cil group, 48 hours after induction of sepsis, cilastatin 150 mg/kg ip immediately and at 24 h, mean±s.e.m.
smiles,measurement,setting,value
"CC1(C)C[C@@H]1C(=O)N/C(=C\CCCCSC[C@H](N)C(=O)O)C(=O)O [cilastatin, (Z)-7-[(2R)-2-Amino-3-hydroxy-3-oxopropyl]sulfanyl-2-{[(1S)-2,2-dimethylcyclopropanecarbonyl]amino}hept-2-enoic acid]",Antioxidant capacity in urine,[1],improved
same,Semi-quantitative renal injury score,[2],reduced the renal injury score
same,Number of TUNEL-positive cells,[3],significantly decreased
same,Renal cortex cleaved caspase-8,[4],attenuated
same,Renal cortex FasL,[5],attenuated
same,Decrease in mortality,"[6]; cilastatin vs CLP plus vehicle, 48 h after CLP",33% and 30%
same,Mortality (%),"[6]; sepsis+cil group, monitored for 48 h after CLP, cilastatin 150 mg/kg immediately and at 24 h, 6 rats per group, sepsis vehicle group 83%",50%
same,Sepsis-induced increase of ICAM-1 expression,[7],significantly reduced
same,Sepsis-enhanced 4-HNE staining in the kidneys,[8],completely prevented
same,TGFβ1 levels in renal tissue,[9],significantly decreased
same,Sepsis-induced increase of VCAM-1 expression,[10],significantly reduced
same,CD68 positive cells in renal samples,[11],fewer
same,Protein excretion,"[12]; CLP group with cilastatin vs CLP group, 48 h",significantly reduced
same,Proteinuria,"[12]; sepsis+cil group (fourth value, group not labelled), 48 hours, cilastatin 150 mg/kg ip, mean±s.e.m.",1889±347
same,Blood urea nitrogen,[12]; [16],75±7
same,Serum creatinine,[12]; [16],0.38±0.02
same,Glomerular filtration rate,"[12]; sepsis+cil group, 48 hours, calculated using the creatinine clearance rate, cilastatin 150 mg/kg ip, mean±s.e.m.",0.45±0.07
same,"Sepsis-induced dysfunctions: serum BUN and creatinine increase, glomerular filtration rate decrease","[12]; septic animals, cilastatin 150 mg/kg ip, 48 h",totally prevented
same,Elevated caspase-3 levels,[13],significantly lowered
same,KIM-1 protein level,[14],partially restored
same,Cu/Zn SOD expression in renal cortex,[15],able to restore its expression
